Literature values in publication PMC8287861 (Frontiers in Microbiology, 2021).
In brackets after ≈: the same amount, converted by molar mass. Where two headings read alike, the source gives them in different places.

What was measured:
[1] = test system: KPC-2; design: method as in Tsivkovski et al. (2020); settings: KPC-2, class A; ref Tsivkovski et al. (2020)
[2] = test system: CTX-M-14; design: method as in Tsivkovski et al. (2020); settings: CTX-M-14, class A; ref Tsivkovski et al. (2020)
[3] = test system: CTX-M-15; design: method as in Tsivkovski et al. (2020); settings: CTX-M-15, class A; ref Tsivkovski et al. (2020)
[4] = test system: SHV-12; settings: SHV-12, class A; ref Tsivkovski et al. (2020)
[5] = test system: P99; design: method as in Tsivkovski et al. (2020); settings: P99, class C; ref Tsivkovski et al. (2020)
[6] = test system: OXA-48; design: method as in Tsivkovski et al. (2020); settings: OXA-48, class D; ref Tsivkovski et al. (2020)
[7] = test system: NDM-1; design: method as in Tsivkovski et al. (2020); settings: class B, ref Tsivkovski et al. (2020)
[8] = test system: VIM-1; design: method as in Tsivkovski et al. (2020); settings: VIM-1, class B; ref Tsivkovski et al. (2020)
[9] = test system: IMP-1; design: method as in Tsivkovski et al. (2020); settings: class B, ref Tsivkovski et al. (2020)
[10] = test system: IMP-26; design: method as in Tsivkovski et al. (2020); settings: class B, ref Tsivkovski et al. (2020)
[11] = test system: KPC-2
[12] = test system: OXA-23; design: method as in Tsivkovski et al. (2020); settings: OXA-23, class D; ref Tsivkovski et al. (2020)
[13] = biological target: KPC-3; design: method as in Tsivkovski et al. (2020); settings: ref Tsivkovski et al. (2020)
[14] = biological target: BKC-1; design: method as in Tsivkovski et al. (2020); settings: ref Tsivkovski et al. (2020)
[15] = biological target: FRI-1; design: method as in Tsivkovski et al. (2020); settings: ref Tsivkovski et al. (2020)
[16] = biological target: SME-2; design: method as in Tsivkovski et al. (2020); settings: ref Tsivkovski et al. (2020)
[17] = biological target: CTX-M-15; design: method as in Tsivkovski et al. (2020); settings: ref Tsivkovski et al. (2020)
[18] = biological target: SHV-12; design: method as in Tsivkovski et al. (2020); settings: ref Tsivkovski et al. (2020)
[19] = biological target: TEM-43; design: method as in Tsivkovski et al. (2020); settings: ref Tsivkovski et al. (2020)
[20] = biological target: P99; design: method as in Tsivkovski et al. (2020); settings: ref Tsivkovski et al. (2020)
[21] = biological target: OXA-48; design: method as in Tsivkovski et al. (2020); settings: ref Tsivkovski et al. (2020)
[22] = biological target: OXA-23; design: method as in Tsivkovski et al. (2020); settings: ref Tsivkovski et al. (2020)
[23] = biological target: OXA-24; design: method as in Tsivkovski et al. (2020); settings: ref Tsivkovski et al. (2020)
[24] = biological target: OXA-58; design: method as in Tsivkovski et al. (2020); settings: ref Tsivkovski et al. (2020)
[25] = biological target: VIM-1; design: method as in Tsivkovski et al. (2020); settings: ref Tsivkovski et al. (2020)
[26] = biological target: IMP-1; design: method as in Tsivkovski et al. (2020); settings: ref Tsivkovski et al. (2020)
[27] = test system: isogenic strains of P. aeruginosa that produced KPC; design: method as in Lomovskaya et al., 2020a; settings: ref Lomovskaya et al., 2020a; for PV50: potency to enhance biapenem activity;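 as to PV50: read from a curve of biapenem MIC plotted against inhibitor concentration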
[28] = test system: KPC-producing porin/efflux mutants of K. pneumoniae; settings: ref Lomovskaya et al.
[29] = test system: Acinetobacter baumannii mutants producing OXA-23; design: method as in Lomovskaya et al., 2020a; settings: overexpression of efflux pumps; ref Lomovskaya et al., 2020a
[30] = test system: carbapenem-resistant strains of Enterobacterales (CRE); design: method as in Nelson et al. (2020a); settings: with meropenem, ref Nelson et al. (2020a)
[31] = test system: ESBL and CRE producing strains of Enterobacterales; design: method as in Nelson et al. (2020a; 2020b); settings: ref Nelson et al. (2020a; 2020b)
[32] = test system: carbapenem resistant Acinetobacter baumannii; settings: in combination with meropenem; majority of the subsets of strains; ref Nelson et al., 2020b
[33] = design: method as in Hecker et al., 2020; settings: rats, doses of 30–100 mg/kg; ref Hecker et al., 2020
[34] = design: method as in Sabet et al., 2020; settings: plasma QPX7728 exposure associated with 8 μg/ml; ref Sabet et al., 2020
[35] = test system: β-lactamases
[36] = design: method as in Hecker et al., 2020; settings: ref Hecker et al. (2020)
[37] = inactivation of OmpK35 and OmpK36 and increased efflux, 2020a
[38] = same mutations (OmpK35, OmpK36, increased efflux), 2017

NC(=O)[C@@H]1CC[C@@H]2CN1C(=O)N2OS(=O)(=O)O [Avibactam, avibactam]
IC50 [2]: 1.4 ± 0.4 nM
IC50 [3]: 0.56 ± 0.25 nM
IC50 [4]: 0.61 ± 0.19 nM
IC50 [5]: 26 ± 7 nM
IC50 [7]: > 160000 nM
IC50 [8]: > 160000 nM
IC50 [9]: > 160000 nM
IC50 [10]: > 160000 nM
residence time ([11]; ref Ehmann et al., 2013): ~2 h

O=C(O)c1c(F)ccc2c1OB(O)[C@@H]1C[C@H]21 [QPX7728]
IC50 [1]: 2.9 ± 0.4 nM
IC50 [2]: 0.94 ± 0.2 nM
IC50 [3]: 1.2 ± 0.1 nM
IC50 [4]: 1.9 ± 0.6 nM
IC50 [5]: 22 ± 6 nM
IC50 [6]: 1.1 ± 0.4 nM
IC50 [12]: 1.2 ± 0.4 nM
IC50 [8]: 14 ± 4 nM
IC50 [9]: 610 ± 70 nM
Kd ([11]; ref Tsivkovski et al. (2020)): 0.25 ± 0.03 nM
Kd [13]: 0.31 ± 0.06 nM
Kd [14]: 0.06 ± 0.005 nM
Kd [15]: 0.11 ± 0.01 nM
Kd [16]: 0.15 ± 0.02 nM
Kd [17]: 0.11 ± 0.02 nM
Kd [18]: 28 ± 4 nM
Kd [19]: 0.17 ± 0.02 nM
Kd [20]: 0.53 ± 0.06 nM
Kd [21]: 0.13 ± 0.01 nM
Kd [22]: 1.6 ± 0.2 nM
Kd [23]: 0.58 ± 0.1 nM
Kd [24]: 3.2 ± 0.3 nM
Kd ([25]; VIM-1 (text b23 calls it Ki)): 7.5 ± 2.1 nM
Ki ([25]; VIM-1, competitive inhibitor): ~7 nM
Kd ([26]; IMP-1 (text b23 calls it Ki)): 240 ± 30 nM
Ki ([26]; IMP-1, competitive inhibitor): ~240 nM
PV50 ([27]; PAM4126, mexR (MexAB-OprM)): 2 µg/mL
PV50 ([27]; PAM4129, nfxB (MexCD-OprJ)): 0.5 µg/mL
PV50 ([27]; PAM4132, mexT (MexEF-OprM)): 1 µg/mL
PV50 ([27]; PAM4150, mexZ (MexXY-OprM)): 1 µg/mL
PV50 ([27]; PAM4224, Wild-type): 1 µg/mL
PV50 ([27]; PAM4365, MexA::Tet): 1 µg/mL
reduction in potency ([27]; mexAB-oprM efflux operon overexpressed): No more than two-fold reduction in potency
effect of inactivation of the carbapenem porin OprD on potency [27]: did not have any effect
potency to completely inhibit KPC ([28]; before porin/efflux mutations, 2020a): 0.125 µg/mL (≈ 0.563 µM)
potency to completely inhibit KPC [28, 37]: 4 µg/mL (≈ 18 µM)
reduction of the potency to completely inhibit KPC [28, 37]: ca. 32 fold
effect of efflux on potency to inhibit β-lactamase [29]: no effect of efflux on the potency
TPC90 ([30]; 598 CRE, breakpoint of 8 μg/ml): 4 µg/mL
TPC90 ([30]; subsets with carbapenemase production and non-β-lactamase-mediated resistance mechanisms): 4 to 8 µg/mL
TPC90 ([31]; in combination with aztreonam at 8 μg/ml (FDA susceptible breakpoint)): 4 µg/mL
TPC90 ([31]; in combination with cefepime at 8 μg/ml (FDA susceptible breakpoint)): 4 µg/mL
TPC90 [32]: less than or equal to 8 μg/ml
oral bioavailability [33]: 43–53%
efficacy of plasma exposure [34]: efficacious in animal models of infection

COc1ccc2c(c1C(=O)O)OB(O)CC2 [RPX7610]
effect of efflux and porin mutations ([35]; ref Hecker et al. (2020)): minimally affected by efflux and porin mutations
β-lactamase inhibition (in words) ([35]; ref Hecker et al. (2020)): potent inhibition of all target β-lactamases
metabolic stability (in words) [36]: metabolic liability

O=C(NC1CCNCC1)[C@@H]1CC[C@@H]2CN1C(=O)N2OS(=O)(=O)O [Relebactam, relebactam]
IC50 [2]: 34 ± 10 nM
IC50 [3]: 76 ± 3 nM
IC50 [4]: 330 ± 50 nM
IC50 [5]: 36 ± 4 nM
IC50 [7]: > 160000 nM
IC50 [8]: > 160000 nM
IC50 [9]: > 160000 nM
IC50 [10]: > 160000 nM
residence time ([11]; ref Papp-Wallace et al., 2018): 1.5 h

O=C(O)C[C@@H]1CC[C@H](NC(=O)Cc2cccs2)B(O)O1 [Vaborbactam, vaborbactam]
IC50 [1]: 110 ± 30 nM
IC50 [2]: 110 ± 40 nM
IC50 [3]: 92 ± 13 nM
IC50 [4]: 56 ± 11 nM
IC50 [5]: 88 ± 38 nM
IC50 [7]: > 160000 nM
IC50 [8]: > 160000 nM
IC50 [9]: > 160000 nM
IC50 [10]: > 160000 nM
residence time ([11]; ref Tsivkovski and Lomovskaya, 2019): ~6 h
PV50 ([27]; PAM4126, mexR (MexAB-OprM)): 64 µg/mL
PV50 ([27]; PAM4129, nfxB (MexCD-OprJ)): 4 µg/mL
PV50 ([27]; PAM4132, mexT (MexEF-OprM)): >64 µg/mL
PV50 ([27]; PAM4150, mexZ (MexXY-OprM)): 8 µg/mL
PV50 ([27]; PAM4224, Wild-type): 8 µg/mL
PV50 ([27]; PAM4365, MexA::Tet): 0.5 µg/mL
reduction in potency ([27]; overproduction of the MexAB-OprM or the MexEF-OprN efflux pumps): ≥ 8 fold
potency to completely inhibit KPC ([28]; before porin/efflux mutations, 2017): 0.25 µg/mL (≈ 0.841 µM)
potency to completely inhibit KPC [28, 38]: 64 µg/mL (≈ 215 µM)
reduction of the potency [28, 38]: 256 fold
potency against other class A or class C beta lactamases compared to KPC enzymes ([35]; fold less potent, ref Tsivkovski and Lomovskaya, 2019): 10–50 fold
